Laboratory results published in PMC6347282, “Neutrophil elastase-cleaved corticosteroid-binding globulin is absent in human plasma” (The Journal of Endocrinology, 2018).

Target: T1, human corticosteroid-binding globulin (CBG; SERPINA6) (Homo sapiens, UniProt P08185)
T1 construct: RCL intact; no tag
T1 sequence (P08185 23-405): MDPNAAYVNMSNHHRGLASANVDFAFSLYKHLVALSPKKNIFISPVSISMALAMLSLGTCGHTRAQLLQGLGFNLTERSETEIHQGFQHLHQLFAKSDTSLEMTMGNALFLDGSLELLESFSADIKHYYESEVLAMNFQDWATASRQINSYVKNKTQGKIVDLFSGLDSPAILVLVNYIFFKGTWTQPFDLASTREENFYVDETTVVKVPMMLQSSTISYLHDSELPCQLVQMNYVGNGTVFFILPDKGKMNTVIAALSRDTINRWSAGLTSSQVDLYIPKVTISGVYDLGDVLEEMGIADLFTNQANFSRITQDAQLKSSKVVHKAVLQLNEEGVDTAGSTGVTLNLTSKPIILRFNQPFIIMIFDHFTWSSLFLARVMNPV
Assay: [3H]-corticosterone saturation binding, Scatchard analysis
Conditions: labelled compound; steroid-affinity purified plasma CBG, before 9G12 immunoprecipitation, ELISA-discordant sample; unreliable: unit doubtful, see left_out

Kd: 1.72 nM
SMILES: C[C@]12C[C@H](O)[C@H]3[C@@H](CCC4=CC(=O)CC[C@@]43C)[C@@H]1CC[C@@H]2C(=O)CO [corticosterone]
